For assay [1], the target named is T1, ALK2 R206H (GST-tagged mutant ALK2) (Homo sapiens, UniProt Q04771, R206H).
T1 construct: purchased Carna Bioscience or ThermoFisher 09-148 or PV6232
T1 sequence (Q04771 21-509 R206H): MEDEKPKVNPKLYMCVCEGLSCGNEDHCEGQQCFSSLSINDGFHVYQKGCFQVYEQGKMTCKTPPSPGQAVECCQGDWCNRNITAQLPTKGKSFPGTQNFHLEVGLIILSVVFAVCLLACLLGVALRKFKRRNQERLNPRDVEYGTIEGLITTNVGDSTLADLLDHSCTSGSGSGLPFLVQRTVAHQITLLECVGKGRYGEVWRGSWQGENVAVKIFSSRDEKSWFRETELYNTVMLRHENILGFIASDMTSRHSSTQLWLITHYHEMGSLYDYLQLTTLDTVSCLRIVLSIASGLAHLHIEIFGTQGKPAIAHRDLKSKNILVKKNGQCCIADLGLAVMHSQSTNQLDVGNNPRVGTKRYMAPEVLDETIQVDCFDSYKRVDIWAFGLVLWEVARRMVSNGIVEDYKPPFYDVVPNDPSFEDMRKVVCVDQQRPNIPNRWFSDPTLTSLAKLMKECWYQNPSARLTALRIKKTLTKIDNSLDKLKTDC
Nature of the assay: ALK binding assay (LANTHASCREEN TR-FRET competitive binding, displacement of Kinase Tracer 178). (In general: Time-resolved FRET reads energy transfer from a long-lived donor to a nearby acceptor.)

The target of another assay is T2, human ALK2 R206H (Homo sapiens, UniProt Q04771, R206H).
T2 construct: expressed in transfected cells; host or cells: HEK293 (ATCC CRL1573), lentivirus transduction, blasticidin selection
T2 sequence (Q04771 21-509 R206H): T1 sequence (Q04771 21-509 R206H)
Description: Cell-based ALK2-R206H cell activity assay (Smad1-Ser463/Ser465 phosphorylation by AlphaLISA in HEK293-ALK2-R206H cells). The method, boiled down: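 Stable HEK293 cells expressing C-terminally FLAG-tagged human ALK2 R206H (lentiviral, blasticidin-selected) were treated with compounds in 10-point, 3-fold dilutions from 10 μM or 1 μM top, in duplicate. Smad1 Ser463/Ser465 phosphorylation was read by AlphaLISA.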
(Alpha assays give light when donor and acceptor beads are brought close together.)

Setting [2] is: ALK2 R206H, LANTHASCREEN TR-FRET competitive binding, read-out: Binding Assay (IC50).
Where [3] appears, read: read-out: Cell Line (Cell Assay IC50).

Where two headings read alike, the source gives them in different places.

As a reminder, the IC50 is the concentration needed to halve the response being measured. For `CC(C)N1CCC[C@@H](c2ccc(-c3cc4c(N5CCN(C(=O)OCCC#N)CC5)ccnn4c3)cc2)C1` [Compound 810], the results for the IC50 (in assay [1] (setting [2]); at human ALK2 R206H (setting [3])) were under 10 nM and under 100 nM, respectively.

Turning to `CC(C)N1CCC(CO)(c2ccc(-c3cc4c(N5CCN(C(=O)C6CC6)CC5)ccnn4c3)cc2)CC1` [Compound 811], the IC50 in assay [1] (setting [2]) is under 10 nM; at human ALK2 R206H (setting [3]) it was under 100 nM.

Regarding `CC(C)N1CCC(c2ccc(-c3cc4c(N5CCN(C(=O)C6CCOC6)CC5)ccnn4c3)cc2)CC1` (stereo not drawn) [Compound 812], the values for the IC50 (in assay [1] (setting [2]); at human ALK2 R206H (setting [3])) were under 10 nM and 100 to 500 nM, respectively.

Turning to `CC1(C)CC(O)(c2ccc(-c3cc4c(N5CCN(C(=O)C6CC6)CC5)ccnn4c3)cc2)CC(C)(C)N1` [Compound 813], the IC50 in assay [1] was under 10 nM; at human ALK2 R206H (Cell Line (Cell Assay IC50)), under 100 nM.

Consider `[2H]C1(OC(=O)N2CCN(c3ccnn4cc(-c5ccc(C6CCN(C(C)C)CC6)cc5)cc34)CC2)COC1` [Compound 814], for which the half-maximal inhibitory concentration (IC50) in assay [1] (setting [2]) is under 10 nM; at human ALK2 R206H (setting [3]), under 100 nM.

For the compound `CCO[C@]1(c2ccc(-c3cc4c(N5CCN(C(=O)OC6COC6)CC5)ccnn4c3)cc2)CCCNC1` [Compound 815], the IC50 is under 10 nM in assay [1] (setting [2]) and under 100 nM at human ALK2 R206H (setting [3]).

Consider `CCO[C@@]1(c2ccc(-c3cc4c(N5CCN(C(=O)OC6COC6)CC5)ccnn4c3)cc2)CCCNC1` [Compound 816], for which the IC50 in assay [1] (setting [2]) was under 10 nM; on human ALK2 R206H (setting [3]) it was under 100 nM.

Consider `COC1(c2ccc(-c3cc4c(N5CCN(C(=O)NC(C)C)CC5)ccnn4c3)nc2)CCNC(C)(C)C1` (stereo not drawn) [Compound 817], for which the IC50 was under 10 nM in assay [1] (setting [2]) and under 100 nM at human ALK2 R206H (setting [3]).

Turning to `CCO[C@]1(c2ccc(-c3cc4c(N5CCN(C(=O)OC6COC6)CC5)ccnn4c3)nc2)CCCNC1` [Compound 818], the figures for the IC50 (in assay [1] (setting [2]); at human ALK2 R206H (setting [3])) were under 10 nM and under 100 nM, respectively.

Consider `CCO[C@@]1(c2ccc(-c3cc4c(N5CCN(C(=O)OC6COC6)CC5)ccnn4c3)nc2)CCCNC1` [Compound 819], for which the IC50 in assay [1] (setting [2]) was under 10 nM; at human ALK2 R206H (setting [3]) it was under 100 nM.

`CCOC(=O)N1CCN(c2ccnn3cc(-c4ccc(C5(OC)CCN(C(C)C)CC5)cn4)cc23)CC1` [Compound 820]: the IC50 is under 10 nM in assay [1] (setting [2]) and under 100 nM on human ALK2 R206H (setting [3]).

Turning to `CCOC1(c2ccc(-c3cc4c(N5CCN(C(=O)OC6COC6)CC5)ccnn4c3)nc2)CCOCC1` [Compound 821], the IC50 in assay [1] (setting [2]) is under 10 nM; on human ALK2 R206H (setting [3]) it was under 100 nM.

As for `CC(C)NC(=O)N1CCN(c2ccnn3cc(-c4ccc(C5(C(F)(F)F)CCNCC5)cc4)cc23)CC1` [Compound 823], the IC50 in assay [1] (setting [2]) was under 10 nM; on human ALK2 R206H (setting [3]), under 100 nM.

`COCC1(c2ccc(-c3cc4c(N5CCN(C(=O)C6CC6)CC5)ccnn4c3)cc2)CCN(C(C)C)CC1` [Compound 824]: the IC50 in assay [1] (setting [2]) was under 10 nM; on human ALK2 R206H (setting [3]), under 100 nM.

For `CC(C)N1CCC[C@@H](c2ccc(-c3cc4c(N5CCN(C(=O)O[C@@H]6CCOC6)CC5)ccnn4c3)cc2)C1` [Compound 825], the IC50 was under 10 nM in assay [1] (setting [2]) and 100 to 500 nM on human ALK2 R206H (setting [3]).

`CC(C)N1CCC[C@@H](c2ccc(-c3cc4c(N5CCN(C(=O)O[C@H]6CCOC6)CC5)ccnn4c3)cc2)C1` [Compound 826]: the figures for the IC50 (in assay [1] (setting [2]); on human ALK2 R206H (setting [3])) were under 10 nM and under 100 nM, respectively.

Consider `CC(C)N1CCC[C@@H](c2ccc(-c3cc4c(N5CCN(C(=O)OC6(C)COC6)CC5)ccnn4c3)cc2)C1` [Compound 827], for which the IC50 in assay [1] (setting [2]) is under 10 nM; on human ALK2 R206H (setting [3]), 100 to 500 nM.

Turning to `CC1OCC1OC(=O)N1CCN(c2ccnn3cc(-c4ccc([C@@H]5CCCN(C(C)C)C5)cc4)cc23)CC1` (stereo partly drawn) [Compound 828], the results for the IC50 (in assay [1] (setting [2]); at human ALK2 R206H (setting [3])) were under 10 nM and 100 to 500 nM, respectively.

In the case of `COC1(c2ccc(-c3cc4c(N5CCN(C(=O)NC(C)C)CC5)ccnn4c3)cc2)CCN(C(C)C)CC1` [Compound 829], the IC50 was under 10 nM in assay [1] (setting [2]) and under 100 nM at human ALK2 R206H (setting [3]).

Regarding `CCOC(=O)N1CCN(c2ccnn3cc(-c4ccc(C5(OCC)CCN(C(C)C)CC5)cc4)cc23)CC1` [Compound 831], the IC50 in assay [1] (setting [2]) is under 10 nM; on human ALK2 R206H (setting [3]) it was under 100 nM.

For `CC(C)N1CCC(c2ccc(-c3cc4c(N5CCN(C(=O)SC6COC6)CC5)ccnn4c3)cc2)CC1` [Compound 832], the results for the IC50 (in assay [1] (setting [2]); on human ALK2 R206H (setting [3])) were under 10 nM and under 100 nM, respectively.

For the compound `COC1(c2ccc(-c3cc4c(N5CCN(C(=O)OC6COC6)CC5)ccnn4c3)nc2)CCNC(C)(C)C1` (stereo not drawn) [Compound 833], the results for the IC50 (in assay [1] (setting [2]); at human ALK2 R206H (setting [3])) were under 10 nM and under 100 nM, respectively.

With `CCOC(=O)N1CCN(c2ccnn3cc(-c4ccc(C5(OC)CCN(C6COC6)CC5)cn4)cc23)CC1` [Compound 834], the IC50 was under 10 nM in assay [1] (setting [2]) and under 100 nM on human ALK2 R206H (setting [3]).

Take `CCOC(=O)N1CCN(c2ccnn3cc(-c4ccc(C5(OCC)CCN(C(C)C)CC5)cn4)cc23)CC1` [Compound 835]: the IC50 in assay [1] (setting [2]) is under 10 nM; at human ALK2 R206H (setting [3]), under 100 nM.

`CC(C)N1CCC(c2ccc(-c3cc4c(N5CCN(C(=O)OC(CO)CO)CC5)ccnn4c3)cc2)CC1` [Compound 836]: the IC50 was under 10 nM in assay [1] (setting [2]) and 100 to 500 nM on human ALK2 R206H (setting [3]).

For `CC(C)N1CCC[C@@H](c2ccc(-c3cc4c(N5CCN(C(=O)OC(CO)CO)CC5)ccnn4c3)cc2)C1` [Compound 837], the figures for the IC50 (in assay [1] (setting [2]); at human ALK2 R206H (setting [3])) were under 10 nM and 100 to 500 nM, respectively.

For the compound `CC(C)N1CCC(c2ccc(-c3cc4c(N5CCN(C(=O)Nc6ccccc6)CC5)ccnn4c3)cc2)CC1` [Compound 838], the IC50 in assay [1] (setting [2]) is under 10 nM; on human ALK2 R206H (setting [3]) it was 100 to 500 nM.

On to `COC1(c2ccc(-c3cc4c(N5CCN(C(=O)C6CC6)CC5)ccnn4c3)c(C#N)c2)CCN(C(C)C)CC1` [Compound 839], for which the figures for the IC50 (in assay [1] (setting [2]); at human ALK2 R206H (setting [3])) were under 10 nM and under 100 nM, respectively.

With `CC(C)N1CCC[C@@H](c2ccc(-c3cc4c(N5CCN(C(=O)OC6(C#N)COC6)CC5)ccnn4c3)cc2)C1` [Compound 840], the IC50 was under 10 nM in assay [1] (setting [2]) and 100 to 500 nM at human ALK2 R206H (setting [3]).

Regarding `O=C(OC1COC1)N1CCN(c2ccnn3cc(-c4ccc(C5(C(F)(F)F)CCNCC5)cc4)cc23)CC1` [Compound 843], the values for the IC50 (in assay [1] (setting [2]); on human ALK2 R206H (setting [3])) were under 10 nM and under 100 nM, respectively.

Turning to `COC1(c2ccc(-c3cc4c(N5CCN(C(=O)NC(C)C)CC5)ccnn4c3)cc2)CCN(C2COC2)CC1` [Compound 844], the half-maximal inhibitory concentration (IC50) in assay [1] (setting [2]) was under 10 nM; at human ALK2 R206H (setting [3]) it was under 100 nM.

As to `CCOC(=O)N1CCN(c2ccnn3cc(-c4ccc(C5(OCC)CCN(C6COC6)CC5)cn4)cc23)CC1` [Compound 845], the IC50 is under 10 nM in assay [1] (setting [2]) and under 100 nM on human ALK2 R206H (setting [3]).

`COC1(c2ccc(-c3cc4c(N5CCN(C(=O)OC6COC6)CC5)ccnn4c3)nc2)CCN(C(C)C)CC1` [Compound 846]: the 50% inhibitory concentration (IC50) is under 10 nM in assay [1] (setting [2]) and under 100 nM on human ALK2 R206H (setting [3]).

On to `CC(C)N1CCC(c2ccc(-c3cc4c(N5CCN(C(=O)OC(CO)C(=O)O)CC5)ccnn4c3)cc2)CC1` (stereo not drawn) [Compound 847, 3-hydroxy-2-(4-(6-(4-(1-isopropylpiperidin-4-yl)phenyl)pyrrolo[1,2-b]pyridazin-4-yl)piperazine-1-carbonyloxy)propanoic acid], for which the IC50 was under 10 nM in assay [1] (setting [2]) and over 500 nM at human ALK2 R206H (setting [3]).

As to `CC(C)N1CC[C@H](OC(F)F)[C@@H](c2ccc(-c3cc4c(N5CCN(C(=O)C6CC6)CC5)ccnn4c3)cc2)C1` [Compound 848], the figures for the IC50 (in assay [1] (setting [2]); at human ALK2 R206H (setting [3])) were under 10 nM and under 100 nM, respectively.

As for `CC(C)N1CC[C@@H](OC(F)F)[C@H](c2ccc(-c3cc4c(N5CCN(C(=O)C6CC6)CC5)ccnn4c3)cc2)C1` [Compound 849], the IC50 in assay [1] (setting [2]) was under 10 nM; on human ALK2 R206H (setting [3]), under 100 nM.
